Experimental data taken from US7772241B2, “Variolin derivatives and their use as antitumor agents” (Pharma Mar S.A., priority 2001, dated 2010).

Assays:
DU-145 = assay: Inhibition of cells growth by colorimetric (SRB) assay, DU-145; details: for GI50 / CC50: Homo sapiens, DU-145, 48 h; for GI50: read-out: GI50 DU-145, SRB assay, 48 hours exposure; for CC50: read-out: LC50 DU-145, SRB assay, 48 hours exposure; for TGI DU-145: SRB assay, 48 hours exposure
Outline: (§1)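 Human tumour cells seeded at 5×10^3/well in RPMI 1640 10% FBS, attached 18 h, then exposed 48 h to samples at 10 to 10^−8 μg/ml in DMSO/EtOH/PBS (0.5:0.5:99). Growth read by SRB staining after TCA fixation, OD 490 nm, triplicate wells; GI, TGI and LC derived.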

PANC-1 = assay: Inhibition of cells growth by colorimetric (SRB) assay, PANC-1; details: for GI50: read-out: GI50 PANC-1, SRB assay, 48 hours exposure
Outline: as §1

IGROV-ET = assay: Inhibition of cells growth by colorimetric (SRB) assay, IGROV-ET; details: for GI50 / CC50: Homo sapiens, 48 h; for GI50: read-out: GI50 IGROV-ET, SRB assay, 48 hours exposure; for CC50: read-out: LC50 IGROV-ET, SRB assay, 48 hours exposure; for TGI IGROV-ET: SRB assay, 48 hours exposure
Outline: as §1

SK-MEL-28 = assay: Inhibition of cells growth by colorimetric (SRB) assay, SK-MEL-28; details: for GI50 / CC50: Homo sapiens, SK-MEL-28, 48 h; for GI50: read-out: GI50 MEL-28, SRB assay, 48 hours exposure; for CC50: read-out: LC50 MEL-28, SRB assay, 48 hours exposure; for TGI MEL-28: SRB assay, 48 hours exposure
Outline: as §1

LNCaP = assay: Inhibition of cells growth by colorimetric (SRB) assay, LNCaP; details: for GI50 / CC50: Homo sapiens, LNCaP, 48 h; for GI50: read-out: GI50 LN-caP, SRB assay, 48 hours exposure; for CC50: read-out: LC50 LN-caP, SRB assay, 48 hours exposure; for TGI LN-caP: SRB assay, 48 hours exposure
Outline: as §1

SK-OV-3 = assay: Inhibition of cells growth by colorimetric (SRB) assay, SK-OV-3
Outline: as §1

K-562 = assay: Inhibition of cells growth by colorimetric (SRB) assay, K-562; details: for GI50 / CC50: Homo sapiens, K562, 48 h; for GI50: read-out: GI50 K-562, SRB assay, 48 hours exposure; for CC50: read-out: LC50 K-562, SRB assay, 48 hours exposure; for TGI K-562: SRB assay, 48 hours exposure
Outline: as §1

IGROV-1 = assay: Inhibition of cells growth by colorimetric (SRB) assay, IGROV-1; details: for GI50 / CC50: Homo sapiens, IGROV-1, 48 h; for GI50: read-out: GI50 IGROV, SRB assay, 48 hours exposure; for CC50: read-out: LC50 IGROV, SRB assay, 48 hours exposure; for TGI IGROV: SRB assay, 48 hours exposure
Outline: as §1

A-549 = assay: Inhibition of cells growth by colorimetric (SRB) assay, A-549; details: for GI50 / CC50: Homo sapiens, A549, 48 h; for GI50: read-out: GI50 A-549, SRB assay, 48 hours exposure; for CC50: read-out: LC50 A-549, SRB assay, 48 hours exposure; for TGI A-549: SRB assay, 48 hours exposure
Outline: as §1

SK-BR-3 = assay: Inhibition of cells growth by colorimetric (SRB) assay, SK-BR-3; details: for GI50 / CC50: Homo sapiens, SK-BR-3, 48 h; for GI50: read-out: GI50 SK-BR-3, SRB assay, 48 hours exposure; for CC50: read-out: LC50 SK-BR-3, SRB assay, 48 hours exposure; for TGI SK-BR-3: SRB assay, 48 hours exposure
Outline: as §1

[1] = Inhibition of cells growth by colorimetric (SRB) assay, HMEC1; details: human, HMEC1 cells, LC50 H-MEC-1, SRB assay, 48 hours exposure
HMEC1 = assay: as above; details: for GI50: Homo sapiens, HMEC-1, 48 h, read-out: GI50 H-MEC-1, SRB assay, 48 hours exposure; for TGI H-MEC-1: SRB assay, 48 hours exposure, in M (unit assumed)
LoVo-Dox = assay: Inhibition of cells growth by colorimetric (SRB) assay, LoVo-Dox
Outline: as §1

HT-29 = assay: Inhibition of cells growth by colorimetric (SRB) assay, HT-29; details: for GI50 / CC50: Homo sapiens, HT-29, 48 h; for GI50: read-out: GI50 HT-29, SRB assay, 48 hours exposure; for CC50: read-out: LC50 HT-29, SRB assay, 48 hours exposure; for TGI HT-29: SRB assay, 48 hours exposure
Outline: as §1

LoVo = assay: Inhibition of cells growth by colorimetric (SRB) assay, LoVo
Outline: as §1

Row | GI50 (A-549) [µM] | Structure (SMILES) | GI50 (DU-145) [µM] | CC50 (DU-145) [µM] | TGI DU-145 (DU-145) | GI50 (PANC-1; Homo sapiens, PANC-1, 48 h) [µM] | GI50 (IGROV-ET) [µM] | CC50 (IGROV-ET) [µM] | TGI IGROV-ET (IGROV-ET) | GI50 (SK-MEL-28) [µM] | CC50 (SK-MEL-28) [µM] | TGI MEL-28 (SK-MEL-28) | GI50 (LNCaP) [µM] | CC50 (LNCaP) [µM] | TGI LN-caP (LNCaP) | GI50 (K-562) [µM] | CC50 (A-549) [µM] | TGI A-549 (A-549) | CC50 at 48 h [1] [µM] | GI50 (HMEC1) [µM] | TGI H-MEC-1 (HMEC1) | further results
1 | 1.03 | COc1nccc(-c2c3c(N)ccnc3n3c(N)nccc23)n1 [Compound 88] | 0.902 | 18.7 | 1.87E−05 | 5.85 | 1.4 | 18.7 | 6.74E−06 | 1.43 | 11.2 | 4.17E−06 | 0.415 | 1.59 | 8.13E−07 | 6.09 | 18.7 | 6.95E−06 | 18.7 | 0.99 | 9.71E−06 | CC50 (PANC-1; Homo sapiens, PANC-1, 48 h, read-out: LC50 PANC-1, SRB assay, 48 hours exposure): 18.7 µM; TGI PANC-1 (PANC-1; SRB assay, 48 hours exposure): 1.87E−05; GI50 (LoVo-Dox; Homo sapiens, 48 h, read-out: GI50 LOVO-DOX, SRB assay, 48 hours exposure): 1.06 µM; CC50 (LoVo-Dox; Homo sapiens, 48 h, read-out: LC50 LOVO-DOX, SRB assay, 48 hours exposure): 15.1 µM; TGI LOVO-DOX (LoVo-Dox; SRB assay, 48 hours exposure): 3.87E−06; CC50 (K-562): 18.7 µM; TGI K-562 (K-562): 1.87E−05; GI50 (HT-29): 1.03 µM; CC50 (HT-29): 18.7 µM; TGI HT-29 (HT-29): 1.87E−05; GI50 (IGROV-1): 3.23 µM; CC50 (IGROV-1): 18.7 µM; TGI IGROV (IGROV-1): 9.58E−06; GI50 (SK-BR-3): 0.562 µM; CC50 (SK-BR-3): 18.7 µM; TGI SK-BR-3 (SK-BR-3): 1.36E−06; GI50 (LoVo; Homo sapiens, LoVo, 48 h, read-out: GI50 LOVO, SRB assay, 48 hours exposure): 1.34 µM; CC50 (LoVo; Homo sapiens, LoVo, 48 h, read-out: LC50 LOVO, SRB assay, 48 hours exposure): 12.9 µM; TGI LOVO (LoVo; SRB assay, 48 hours exposure): 4.37E−06
2 | 22.4 | CS(=O)(=O)c1nccc(-c2c3c(OCc4ccccc4)ccnc3n3c(N)nccc23)n1 [Compound 99] | – | – | – | – | – | – | – | – | – | – | – | – | – | – | 22.4 | 2.24E−05 | 22.4 | 8.2 | 2.24E−05 | GI50 (HT-29): 22.4 µM; CC50 (HT-29): 22.4 µM; TGI HT-29 (HT-29): 2.24E−05

Row | Structure (SMILES) | GI50 (A-549) [µM] | GI50 (DU-145) [µM] | CC50 (DU-145) [µM] | TGI DU-145 (DU-145) | GI50 (PANC-1; Homo sapiens, PANC-1, 48 h) [µM] | GI50 (IGROV-ET) [µM] | CC50 (IGROV-ET) [µM] | TGI IGROV-ET (IGROV-ET) | GI50 (SK-MEL-28) [µM] | CC50 (SK-MEL-28) [µM] | TGI MEL-28 (SK-MEL-28) | GI50 (LNCaP) [µM] | CC50 (LNCaP) [µM] | TGI LN-caP (LNCaP) | GI50 (K-562) [µM] | CC50 (A-549) [µM] | TGI A-549 (A-549) | CC50 at 48 h [1] [µM] | GI50 (HMEC1) [µM] | TGI H-MEC-1 (HMEC1) | further results
3 | COc1ccc(CNc2ccnc3c2c(-c2ccnc([S+](C)[O-])n2)c2ccnc(NCc4ccc(OC)cc4)n23)cc1 (stereo not shown) [Compound 86] | ≥ 17.3 | ≥ 17.3 | ≥ 17.3 | 1.73E−05 | ≥ 17.3 | ≥ 17.3 | ≥ 17.3 | 1.73E−05 | ≥ 17.3 | ≥ 17.3 | 1.73E−05 | ≥ 17.3 | ≥ 17.3 | 1.73E−05 | ≥ 17.3 | ≥ 17.3 | 1.73E−05 | ≥ 17.3 | 7.99 | 1.73E−05 | GI50 (SK-OV-3; Homo sapiens, SK-OV-3, 48 h, read-out: GI50 SKOV-3, SRB assay, 48 hours exposure): ≥ 17.3 µM; CC50 (SK-OV-3; Homo sapiens, SK-OV-3, 48 h, read-out: LC50 SKOV-3, SRB assay, 48 hours exposure): ≥ 17.3 µM; TGI SKOV-3 (SK-OV-3; SRB assay, 48 hours exposure): 1.73E−05; CC50 (K-562): ≥ 17.3 µM; TGI K-562 (K-562): 1.73E−05; GI50 (IGROV-1): ≥ 17.3 µM; CC50 (IGROV-1): ≥ 17.3 µM; TGI IGROV (IGROV-1): 1.73E−05; GI50 (SK-BR-3): ≥ 17.3 µM; CC50 (SK-BR-3): ≥ 17.3 µM; TGI SK-BR-3 (SK-BR-3): 1.73E−05
